Measured values as given in the NIST ThermoML archive (doi:10.1021/je050031f).

Tests used:
[1] = xn = mol fraction of the nth substance listed; conditions: 100.8 kPa, Liquid
[2] = refractive index (Na D-line) (dimensionless); xn = mol fraction of the nth substance listed; conditions: 100.8 kPa, Liquid, Standard Abbe refractometry

CC(C)OC(C)C [diisopropyl ether] + CCO
Conditions	mass density, 288.15 K [kg/m3]	mass density, 298.15 K [kg/m3]	mass density, 308.15 K [kg/m3]	refractive index, 288.15 K	refractive index, 298.15 K	refractive index, 308.15 K	viscosity, 288.15 K [mPa·s]	viscosity, 298.15 K [mPa·s]	viscosity, 308.15 K [mPa·s]
[1], x1 = 0.05	788.3	779.8	771	–	–	–	1.176	0.976	0.815
[1], x1 = 0.1	783.4	774.8	765.8	–	–	–	1.047	0.876	0.737
[1], x1 = 0.15	778.8	770	760.9	–	–	–	0.946	0.793	0.671
[1], x1 = 0.2	774.7	765.7	756.4	–	–	–	0.851	0.718	0.613
[1], x1 = 0.25	770.7	761.4	752	–	–	–	0.772	0.655	0.562
[1], x1 = 0.3	766.9	757.5	747.9	–	–	–	0.705	0.605	0.52
[1], x1 = 0.35	763.3	753.9	744.2	–	–	–	0.649	0.559	0.484
[1], x1 = 0.4	760	750.4	740.7	–	–	–	0.6	0.519	0.452
[1], x1 = 0.45	756.9	747.1	737.3	–	–	–	0.559	0.487	0.427
[1], x1 = 0.5	753.8	744.1	734.1	–	–	–	0.523	0.457	0.403
[1], x1 = 0.55	751	741.2	731.1	–	–	–	0.494	0.432	0.382
[1], x1 = 0.6	748.3	738.4	728.3	–	–	–	0.467	0.413	0.364
[1], x1 = 0.65	745.7	735.8	725.6	–	–	–	0.445	0.393	0.349
[1], x1 = 0.7	743.2	733.2	723	–	–	–	0.424	0.378	0.335
[1], x1 = 0.75	740.7	730.7	720.5	–	–	–	0.407	0.363	0.325
[1], x1 = 0.8	738.3	728.3	718	–	–	–	0.393	0.349	0.315
[1], x1 = 0.85	735.8	725.8	715.5	–	–	–	0.379	0.338	0.306
[1], x1 = 0.9	733.5	723.4	713.1	–	–	–	0.367	0.33	0.298
[1], x1 = 0.95	731.1	720.9	710.6	–	–	–	0.367	0.319	0.29
[1], x1 = 1	729	718.6	707.9	–	–	–	0.347	0.313	0.283
[2], x1 = 0.05	–	–	–	1.3657	1.36097	1.35649	–	–	–
[2], x1 = 0.1	–	–	–	1.36697	1.36212	1.35757	–	–	–
[2], x1 = 0.15	–	–	–	1.368	1.36316	1.35852	–	–	–
[2], x1 = 0.2	–	–	–	1.36883	1.36395	1.35926	–	–	–
[2], x1 = 0.25	–	–	–	1.36952	1.36457	1.3598	–	–	–
[2], x1 = 0.3	–	–	–	1.37013	1.36509	1.36021	–	–	–
[2], x1 = 0.35	–	–	–	1.37062	1.3655	1.36057	–	–	–
[2], x1 = 0.4	–	–	–	1.37102	1.36587	1.36083	–	–	–
[2], x1 = 0.45	–	–	–	1.37134	1.36612	1.36102	–	–	–
[2], x1 = 0.5	–	–	–	1.37158	1.36632	1.36113	–	–	–
[2], x1 = 0.55	–	–	–	1.37175	1.36644	1.36119	–	–	–
[2], x1 = 0.6	–	–	–	1.3719	1.36651	1.36118	–	–	–
[2], x1 = 0.65	–	–	–	1.37197	1.36652	1.36116	–	–	–
[2], x1 = 0.7	–	–	–	1.37196	1.36651	1.36112	–	–	–
[2], x1 = 0.75	–	–	–	1.37192	1.36645	1.36103	–	–	–
[2], x1 = 0.8	–	–	–	1.37188	1.36635	1.36089	–	–	–
[2], x1 = 0.85	–	–	–	1.37178	1.36621	1.36071	–	–	–
[2], x1 = 0.9	–	–	–	1.37162	1.36597	1.36042	–	–	–
[2], x1 = 0.95	–	–	–	1.37141	1.36566	1.36	–	–	–
[2], x1 = 1	–	–	–	1.37126	1.36537	1.35954	–	–	–
